Counter-ions that a name gives are not always drawn. Like-named read-outs stand apart in the source and are kept apart here.
Key:
DOCA hypertensive rats [1] = experiment: antihypertensive activity (mean arterial blood pressure) after oral administration in DOCA hypertensive rats; assay type: in vivo, rat; conditions: for maximal percent changes in MABP: DOCA rats; for MABP, maximum percent changes: Table 2 (in brackets); for MABP, summation of percent changes: Table 2
Experimental: (b) DOCA = Desoxycorticosterone acetate.
(c) MABP = Mean arterial blood pressure. Negative values represent falls
in blood pressure and conversely positive values increases in blood
pressure. The values of maximum percent changes are mean values taken fro
groups of 5-7 DOCA hypertensive rats.
(d) Values in the final column represent duration of action of the
relative increases and decreases in blood pressure with the respective
treatments. Group mean percent changes are added together for the times o
1, 2, 3 and 5 hours after oral dosage. […]
Values in the final column are summation of percent changes with, in
brackets the maximum percent changes.

DOCA hypertensive rats [2] = experiment: heart rate in DOCA hypertensive rats after oral administration; conditions: both doses (5 and 50 mg/kg)
β-adrenoreceptor = molecular target: T1, β-adrenoreceptor (Cavia porcellus, UniProt H0W3H1); experiment: antagonism of positive chronotropic responses to (-)-isoprenaline in isolated guinea-pig right atria; assay type: cell-based; conditions: for times (±)-propranolol was more potent as an antagonist than the compound / times less active than (±)-propranolol: β-adrenoreceptor antagonism in vitro
T1 construct: isolated guinea-pig right atria; from tissue; host or cells: isolated guinea-pig right atria
T1 sequence (H0W3H1 1-470): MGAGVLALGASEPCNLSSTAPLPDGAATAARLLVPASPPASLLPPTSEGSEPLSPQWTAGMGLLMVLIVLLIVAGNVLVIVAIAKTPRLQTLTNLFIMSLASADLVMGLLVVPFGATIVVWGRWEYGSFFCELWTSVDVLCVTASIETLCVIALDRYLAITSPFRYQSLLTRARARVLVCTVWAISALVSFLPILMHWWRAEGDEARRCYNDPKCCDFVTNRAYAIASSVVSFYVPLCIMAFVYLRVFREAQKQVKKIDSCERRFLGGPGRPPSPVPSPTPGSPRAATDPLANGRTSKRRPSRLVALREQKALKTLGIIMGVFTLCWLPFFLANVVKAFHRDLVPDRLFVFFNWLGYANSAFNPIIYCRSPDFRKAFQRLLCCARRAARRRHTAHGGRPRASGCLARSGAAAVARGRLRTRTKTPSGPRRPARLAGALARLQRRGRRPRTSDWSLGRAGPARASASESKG
Excerpt: Tolamolol is the approved name for 1-[2-(4-carbamoylphenoxy)ethylamino]-3-(2-methylphenoxy)propan-2-ol.
The values in this table are the mean of 4-8

DOCA hypertensive rats [3] = experiment: toxicity / deaths seen in the antihypertensive test in DOCA rats; assay type: in vivo, rat; conditions: oral dose 100 mg/kg
Excerpt: (d) With Example B in the antihypertensive test at an oral dose of 100

[4] = oral dose 50 mg/kg, mean of groups of 5-7, negative = fall
[5] = oral dose 50 mg/kg, MABP, sum of 1, 2, 3 and 5 hours after dosage
[6] = oral dose 100 mg/kg, mean of groups of 5-7, negative = fall
[7] = oral dose 100 mg/kg, MABP, sum of 1, 2, 3 and 5 hours after dosage
[8] = Table 1, isolated guinea-pig atria, mean of 4-8 experiments, read-out: pA2 value against chronotropic responses of isoprenaline (converted)
[9] = Table 2, isolated guinea-pig atria vs isoprenaline, read-out: β-Antag. pA2 (converted)

| Kb (β-adrenoreceptor; [8]) [µM] | SMILES | maximal percent changes in MABP (DOCA hypertensive rats [1]; [4]) | Summation of percent changes (DOCA hypertensive rats [1]; [5]) | maximal percent changes in MABP (DOCA hypertensive rats [1]; [6]) [%] | Summation of percent changes (DOCA hypertensive rats [1]; [7]) [%] | MABP, maximum percent changes (DOCA hypertensive rats [1]; oral dose 100 mg/kg) [%] | MABP, summation of percent changes (DOCA hypertensive rats [1]; oral dose 100 mg/kg) [%] | further results |
| --- | --- | --- | --- | --- | --- | --- | --- | --- |
| – | CC(C)NCC(O)COc1cccc2ccccc12 (racemic) [(±)-Propranolol] | +11% | +38% | – | – | – | – | effect on blood pressure (DOCA hypertensive rats [1]; 50 mg/kg, p.o.): long-lasting increase in blood pressure; maximal percent changes in MABP (DOCA hypertensive rats [1]; oral dose 5 mg/kg, fall, group mean): -5%; Summation of percent changes (DOCA hypertensive rats [1]; oral dose 5 mg/kg, fall, sum of 1, 2, 3 and 5 hours): -6%; maximal percent changes in MABP (DOCA hypertensive rats [1]; oral dose 5 mg/kg, increase, group mean): +10%; Summation of percent changes (DOCA hypertensive rats [1]; oral dose 5 mg/kg, increase, sum of 1, 2, 3 and 5 hours): +15%; effect on mean blood pressure (DOCA hypertensive rats [1]; oral, 5.0 mg/kg): small increase in mean blood pressure followed by a non-significant transient fall; effect on heart rate (DOCA hypertensive rats [2]): decreased heart rate |
| 0.017 | Cc1ccccc1OCC(O)CNCCOc1ccc(C(N)=O)cc1 (racemic) [(±)-Tolamolol, 1-[2-(4-carbamoylphenoxy)ethylamino]-3-(2-methylphenoxy)propan-2-ol] | -20% | -47% | -30 | -88 | – | – | duration of blood pressure effect versus bradycardia (DOCA hypertensive rats [1]; oral, (±)-tolamolol): of a shorter duration than the bradycardia; effect on blood pressure (DOCA hypertensive rats [1]; oral, (±)-tolamolol): falls in blood pressure which were relatively transient; relative potency as β-adrenoreceptor antagonist (β-adrenoreceptor; in vitro, among the compounds of Table 1): most potent β-adrenoreceptor antagonists tested in vitro |
| – | COc1cc(C)c([S+](C)[O-])cc1OCCNCC(O)COc1ccccc1C (stereo not shown) [A] | – | – | – | – | -37 | -127 | Kb (β-adrenoreceptor; [9]): 3.16 µM |
| – | COc1cc([S+](C)[O-])c(C)cc1OCCNCC(O)COc1cccc(C)c1 (stereo not shown) [C] | – | – | – | – | -8 | -23 | pD'2 (β-adrenoreceptor; Table 2, in pA2 column, negative log molar concentration depressing maximum agonist response by 50%, noncompetitive): 4.3; nature of interaction with isoprenaline (β-adrenoreceptor; adrenoreceptor antagonism test): noncompetitive in nature |
| – | COc1cc([S+](C)[O-])c(C)cc1OCCNCC(O)COc1ccc(C)cc1 (stereo not shown) [D] | – | – | – | – | -23 | -82 | Kb (β-adrenoreceptor; [9]): 1.17 µM |
| 0.38 | COc1cc([S+](C)[O-])c(C)cc1OCCNCC(O)COc1ccccc1C.O=C(O)C(=O)O (stereo not shown) [Example 1, 1-[2-(2-Methoxy-5-methyl-4-methylsulphinylphenoxy)ethylamino]-3-(2-methylphenoxy)propan-2-ol oxalate salt] | -37% | -137% | -47 | -170 | -47 | -170 | times (±)-propranolol was more potent as an antagonist than the compound (β-adrenoreceptor): ~20 times |
| 0.191 | COc1cc(S(C)(=O)=O)c(C)cc1OCCNCC(O)COc1ccccc1.O=C(O)C(=O)O (stereo not shown) [Example 6, 1-[2-(2-Methoxy-5-methyl-4-methylsulphonylphenoxy)ethylamino]-3-phenoxypropan-2-ol oxalate salt] | – | – | -35 | -127 | – | – | times (±)-propranolol was more potent as an antagonist than the compound (β-adrenoreceptor): approximately 10 times |
| 0.0288 | COc1cc2c(cc1OCCNCC(O)COc1ccccc1C)CCCC[S+]2[O-] (stereo not shown) [Example 8, 1-[2-(8-Methoxy-2,3,4,5-tetrahydro-1-benzothiepin-7-oxy)ethylamino]-3-(2-methylphenoxy)propan-2-ol S-oxide oxalate salt] | – | – | -43 | -161 | – | – | times less active than (±)-propranolol (β-adrenoreceptor): 1.5 times |
| 0.0295 | COc1cc([S+](C)[O-])c(OC)cc1OCCNCC(O)COc1ccccc1C.O=C(O)C(=O)O (stereo not shown) [Example 10, 1-[2-(2,5-Dimethoxy-4-methylsulphinylphenoxy)ethylamino]-3-(2-methylphenoxy)propan-2-ol oxalate salt] | – | – | -36 | -131 | – | – | times less active than (±)-propranolol (β-adrenoreceptor): 1.5 times |
| – | COc1ccc(OCCNCC(O)COc2ccccc2C)c([S+](C)[O-])c1 (stereo not shown) [Example B] | – | – | – | – | – | – | toxicity (MABP column) (DOCA hypertensive rats [3]; Table 2): toxic; deaths of test rats (DOCA hypertensive rats [3]; antihypertensive test): 5 of the 6 test rats died |

Reference: patent US4410548A, “Propanolamine derivatives” (Reckitt & Colman Products Limited, priority 1980, dated 1983)
